Data as given in publication PMC6009876, “Introduction of pyrrolidineoxy or piperidineamino group at the 4-position of quinazoline leading to novel quinazoline-based phosphoinositide 3-kinase delta (PI3Kδ) inhibitors” (Journal of Enzyme Inhibition and Medicinal Chemistry, 2018).
Where two headings read alike, the source gives them in different places.

Experiments:
Ramos = assay: Anti-proliferative activity, MTT reduction method; format: cell-based; details: Homo sapiens, mean of at least two experiments
RPMI-8226 = assay: Anti-proliferative activity, MTT reduction method; format: cell-based; details: Homo sapiens, mean of at least two experiments
SU-DHL-6 = assay: Anti-proliferative activity, CCK-8 method; format: cell-based; details: Homo sapiens, mean of at least two experiments
Raji = assay: Anti-proliferative activity, MTT reduction method; format: cell-based; details: Homo sapiens, mean of at least two experiments
PI3Kδ [1] = molecular target: T1, PI3Kδ (Homo sapiens, UniProt O00329); assay: PI3Kδ inhibitory activity; format: biochemical; details: mean of at least two experiments; for inhibition at 0.1 µM: at the concentration of 100 nM
PI3Kδ [2] = molecular target: T1, PI3Kδ; details: cited from earlier work
PI3Kα = PI3Kα (Homo sapiens, UniProt P42336); assay: PI3K isoform selectivity, p110α; format: biochemical; details: for IC50: mean of at least two experiments
PI3Kβ = PI3Kβ (Homo sapiens, UniProt P42338); assay: PI3K isoform selectivity, p110β; format: biochemical; details: for IC50: mean of at least two experiments
PI3Kγ = PI3Kγ (Homo sapiens, UniProt P48736); assay: PI3K isoform selectivity, p110γ; format: biochemical; details: for IC50: mean of at least two experiments
[3] = Table 3 isoform selectivity, read-out: p110δ IC50

Sequence of PI3Kβ (P42338 whole entry, species assumed, canonical isoform): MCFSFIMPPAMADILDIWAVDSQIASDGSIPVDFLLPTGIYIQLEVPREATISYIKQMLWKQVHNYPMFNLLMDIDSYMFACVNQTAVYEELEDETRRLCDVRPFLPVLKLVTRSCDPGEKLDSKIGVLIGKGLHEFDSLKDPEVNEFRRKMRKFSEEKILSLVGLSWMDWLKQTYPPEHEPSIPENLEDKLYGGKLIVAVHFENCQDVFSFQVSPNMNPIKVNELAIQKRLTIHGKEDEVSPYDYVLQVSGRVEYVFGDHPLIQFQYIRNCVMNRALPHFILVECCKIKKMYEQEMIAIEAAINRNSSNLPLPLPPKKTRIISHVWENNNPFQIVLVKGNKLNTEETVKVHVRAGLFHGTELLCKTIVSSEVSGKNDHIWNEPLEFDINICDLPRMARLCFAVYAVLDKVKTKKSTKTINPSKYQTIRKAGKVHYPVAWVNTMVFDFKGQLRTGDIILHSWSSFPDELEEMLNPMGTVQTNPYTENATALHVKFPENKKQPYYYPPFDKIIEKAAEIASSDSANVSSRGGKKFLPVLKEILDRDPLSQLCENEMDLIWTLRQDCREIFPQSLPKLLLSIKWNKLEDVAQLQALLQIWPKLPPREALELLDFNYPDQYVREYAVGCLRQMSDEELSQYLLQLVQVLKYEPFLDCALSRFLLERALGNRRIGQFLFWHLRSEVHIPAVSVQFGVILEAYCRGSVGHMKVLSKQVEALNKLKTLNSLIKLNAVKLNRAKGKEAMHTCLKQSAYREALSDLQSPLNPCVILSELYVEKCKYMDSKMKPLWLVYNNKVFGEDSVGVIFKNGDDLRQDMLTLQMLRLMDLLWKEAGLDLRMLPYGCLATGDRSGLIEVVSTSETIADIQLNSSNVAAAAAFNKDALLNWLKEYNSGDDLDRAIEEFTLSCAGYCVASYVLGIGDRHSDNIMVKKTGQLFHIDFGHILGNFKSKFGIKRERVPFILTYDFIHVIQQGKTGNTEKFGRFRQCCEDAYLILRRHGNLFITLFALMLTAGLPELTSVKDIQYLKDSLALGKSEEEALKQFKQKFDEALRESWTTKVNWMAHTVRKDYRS
Sequence of PI3Kβ (P27986 whole entry partner, species assumed, canonical isoform): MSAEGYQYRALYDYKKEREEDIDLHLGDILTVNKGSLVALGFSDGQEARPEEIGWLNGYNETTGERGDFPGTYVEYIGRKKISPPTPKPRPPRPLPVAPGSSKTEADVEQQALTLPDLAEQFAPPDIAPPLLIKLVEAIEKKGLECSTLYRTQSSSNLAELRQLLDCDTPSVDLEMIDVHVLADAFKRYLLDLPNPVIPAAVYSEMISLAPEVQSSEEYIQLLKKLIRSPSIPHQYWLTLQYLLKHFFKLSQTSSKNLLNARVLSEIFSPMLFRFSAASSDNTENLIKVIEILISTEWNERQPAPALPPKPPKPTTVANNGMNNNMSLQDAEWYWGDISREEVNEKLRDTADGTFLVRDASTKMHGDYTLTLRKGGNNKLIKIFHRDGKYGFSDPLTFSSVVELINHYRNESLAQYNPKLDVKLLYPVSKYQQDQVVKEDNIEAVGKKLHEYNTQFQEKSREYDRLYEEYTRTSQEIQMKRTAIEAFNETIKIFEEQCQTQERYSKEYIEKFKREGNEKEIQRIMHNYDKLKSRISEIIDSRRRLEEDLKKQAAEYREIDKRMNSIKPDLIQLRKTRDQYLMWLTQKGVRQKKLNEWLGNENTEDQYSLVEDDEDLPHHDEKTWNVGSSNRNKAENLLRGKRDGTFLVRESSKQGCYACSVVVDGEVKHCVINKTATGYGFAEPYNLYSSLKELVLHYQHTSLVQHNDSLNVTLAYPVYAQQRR
Sequence of PI3Kα (P42336 whole entry, species assumed, canonical isoform): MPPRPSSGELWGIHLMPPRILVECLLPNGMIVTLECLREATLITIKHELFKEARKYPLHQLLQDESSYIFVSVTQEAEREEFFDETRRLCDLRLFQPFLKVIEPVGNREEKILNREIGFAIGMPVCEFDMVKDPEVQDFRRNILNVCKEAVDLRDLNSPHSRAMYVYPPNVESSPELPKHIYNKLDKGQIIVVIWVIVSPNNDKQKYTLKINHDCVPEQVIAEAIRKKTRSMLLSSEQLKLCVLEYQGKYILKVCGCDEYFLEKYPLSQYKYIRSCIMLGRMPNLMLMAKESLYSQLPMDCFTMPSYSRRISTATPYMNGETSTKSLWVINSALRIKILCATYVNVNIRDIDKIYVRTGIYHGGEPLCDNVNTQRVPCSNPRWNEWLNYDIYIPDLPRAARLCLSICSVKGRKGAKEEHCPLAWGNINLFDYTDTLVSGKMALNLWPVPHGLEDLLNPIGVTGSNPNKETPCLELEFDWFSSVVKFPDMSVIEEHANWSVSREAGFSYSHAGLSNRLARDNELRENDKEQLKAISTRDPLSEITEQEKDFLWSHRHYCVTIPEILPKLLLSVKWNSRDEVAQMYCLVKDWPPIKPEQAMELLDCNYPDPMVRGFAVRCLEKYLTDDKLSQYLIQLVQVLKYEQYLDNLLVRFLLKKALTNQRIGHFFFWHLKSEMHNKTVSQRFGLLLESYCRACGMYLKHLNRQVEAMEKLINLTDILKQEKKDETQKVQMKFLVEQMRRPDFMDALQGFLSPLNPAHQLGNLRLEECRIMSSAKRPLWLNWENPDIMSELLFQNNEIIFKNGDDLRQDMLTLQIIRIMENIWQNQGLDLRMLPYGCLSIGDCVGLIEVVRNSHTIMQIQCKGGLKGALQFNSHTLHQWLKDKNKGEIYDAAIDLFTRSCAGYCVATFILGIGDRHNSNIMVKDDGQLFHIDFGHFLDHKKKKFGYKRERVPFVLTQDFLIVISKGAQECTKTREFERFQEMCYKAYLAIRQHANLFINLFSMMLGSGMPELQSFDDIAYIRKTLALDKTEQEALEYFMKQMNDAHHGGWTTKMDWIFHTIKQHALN
Sequence of PI3Kα (P27986 whole entry partner, species assumed, canonical isoform): as the sequence (P27986 whole entry partner, species assumed, canonical isoform) above
Sequence of PI3Kγ (P48736 whole entry, species assumed, canonical isoform): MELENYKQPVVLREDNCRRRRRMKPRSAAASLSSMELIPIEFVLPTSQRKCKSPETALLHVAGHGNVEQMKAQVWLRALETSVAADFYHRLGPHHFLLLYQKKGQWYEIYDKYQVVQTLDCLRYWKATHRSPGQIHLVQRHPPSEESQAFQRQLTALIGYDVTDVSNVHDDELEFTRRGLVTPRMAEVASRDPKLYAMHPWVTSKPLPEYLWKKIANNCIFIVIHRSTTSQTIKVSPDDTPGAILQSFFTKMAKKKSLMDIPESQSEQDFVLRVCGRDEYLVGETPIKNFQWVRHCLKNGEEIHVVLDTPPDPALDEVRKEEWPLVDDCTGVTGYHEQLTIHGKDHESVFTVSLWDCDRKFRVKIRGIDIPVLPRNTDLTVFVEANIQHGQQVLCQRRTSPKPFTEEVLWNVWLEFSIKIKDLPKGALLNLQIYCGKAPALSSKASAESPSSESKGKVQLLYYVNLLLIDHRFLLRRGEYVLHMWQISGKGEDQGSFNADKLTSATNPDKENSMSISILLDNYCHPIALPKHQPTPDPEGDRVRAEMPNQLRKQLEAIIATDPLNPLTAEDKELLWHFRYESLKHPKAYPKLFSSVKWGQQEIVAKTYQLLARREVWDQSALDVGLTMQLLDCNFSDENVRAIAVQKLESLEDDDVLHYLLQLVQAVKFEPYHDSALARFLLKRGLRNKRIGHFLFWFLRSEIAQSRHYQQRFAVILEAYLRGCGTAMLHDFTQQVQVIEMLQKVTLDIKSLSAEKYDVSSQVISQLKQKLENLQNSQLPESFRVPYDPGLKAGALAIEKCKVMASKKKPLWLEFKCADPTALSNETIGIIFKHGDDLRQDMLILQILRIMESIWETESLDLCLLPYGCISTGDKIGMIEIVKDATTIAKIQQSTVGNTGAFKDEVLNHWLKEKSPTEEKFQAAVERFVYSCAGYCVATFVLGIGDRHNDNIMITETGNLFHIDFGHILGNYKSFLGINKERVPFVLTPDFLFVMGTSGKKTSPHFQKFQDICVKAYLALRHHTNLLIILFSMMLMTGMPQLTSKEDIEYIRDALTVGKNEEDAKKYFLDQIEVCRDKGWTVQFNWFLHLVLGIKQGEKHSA
T1 sequence (O00329 whole entry): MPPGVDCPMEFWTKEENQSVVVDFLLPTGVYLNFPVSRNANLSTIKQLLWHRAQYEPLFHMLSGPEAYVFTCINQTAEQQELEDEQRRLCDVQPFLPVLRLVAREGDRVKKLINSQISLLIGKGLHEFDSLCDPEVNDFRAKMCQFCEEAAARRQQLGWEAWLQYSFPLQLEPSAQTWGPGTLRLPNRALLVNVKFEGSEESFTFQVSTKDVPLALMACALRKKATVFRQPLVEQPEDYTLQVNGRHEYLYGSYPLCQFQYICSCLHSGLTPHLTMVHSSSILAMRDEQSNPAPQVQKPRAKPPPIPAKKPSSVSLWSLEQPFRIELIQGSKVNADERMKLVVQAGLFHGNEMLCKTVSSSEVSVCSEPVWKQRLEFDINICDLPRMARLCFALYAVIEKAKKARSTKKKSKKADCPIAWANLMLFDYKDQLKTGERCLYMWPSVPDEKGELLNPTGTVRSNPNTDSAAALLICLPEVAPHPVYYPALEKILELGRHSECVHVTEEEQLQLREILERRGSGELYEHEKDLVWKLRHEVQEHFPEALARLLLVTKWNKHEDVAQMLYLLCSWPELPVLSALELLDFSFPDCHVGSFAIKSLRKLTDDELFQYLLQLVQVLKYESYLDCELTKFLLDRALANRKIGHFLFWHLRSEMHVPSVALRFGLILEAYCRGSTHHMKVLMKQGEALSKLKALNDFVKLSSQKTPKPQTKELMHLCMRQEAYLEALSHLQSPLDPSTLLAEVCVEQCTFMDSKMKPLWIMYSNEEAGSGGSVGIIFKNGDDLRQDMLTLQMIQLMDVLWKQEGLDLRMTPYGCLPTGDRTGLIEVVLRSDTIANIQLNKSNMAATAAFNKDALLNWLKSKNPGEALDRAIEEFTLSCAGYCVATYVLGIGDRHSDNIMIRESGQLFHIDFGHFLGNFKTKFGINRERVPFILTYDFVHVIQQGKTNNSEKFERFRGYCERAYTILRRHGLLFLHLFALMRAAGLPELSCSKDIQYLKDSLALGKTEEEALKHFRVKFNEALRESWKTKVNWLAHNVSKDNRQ
T1 sequence (P27986 whole entry partner): as the sequence (P27986 whole entry partner, species assumed, canonical isoform) above

SMILES: CC[C@H](Nc1ncnc2[nH]cnc12)c1nc2cccc(F)c2c(=O)n1-c1ccccc1 [Compound 1, idelalisib, reference compound]
- IC50 (Ramos): > 10000 nM
- IC50 (RPMI-8226): 5490 nM
- IC50 (SU-DHL-6): 650 nM
- IC50 (Raji): 9950 nM
- inhibition at 0.1 µM (PI3Kδ [1]): 96%

SMILES: C[C@H](Nc1nc(N)nc(N)c1C#N)c1nc2cccc(F)c2c(=O)n1-c1cc(F)cc(F)c1 [Compound 3]
- IC50 (PI3Kδ [2]; idelalisib-derived analogues): 2.2 nM

SMILES: COc1ncc(-c2ccc3ncnc(Nc4cccc(C(=O)N5CCOCC5)c4)c3c2)cc1C#N [Compound 8]
- IC50 (PI3Kδ [2]; 4-anilinequinazoline): 9.3 nM

SMILES: COc1ccc(-c2ccc3ncnc(O[C@H]4CCN(C(=O)OC(C)(C)C)C4)c3c2)cn1 [Compound 12a]
- inhibition at 0.1 µM (PI3Kδ [1]): 79%

SMILES: COc1ccc(-c2ccc3ncnc(O[C@H]4CCN(C(=O)C5CC5)C4)c3c2)cn1 [Compound 12b]
- inhibition at 0.1 µM (PI3Kδ [1]): 90%
- IC50 (PI3Kδ [1]; read-out: PI3Kδ IC50): 9.3 nM

SMILES: COc1ccc(-c2ccc3ncnc(O[C@H]4CCN(C(=O)C5CCC5)C4)c3c2)cn1 [Compound 12c]
- inhibition at 0.1 µM (PI3Kδ [1]): 96%
- IC50 (PI3Kδ [1]; read-out: PI3Kδ IC50): 6.1 nM

SMILES: COc1ccc(-c2ccc3ncnc(O[C@H]4CCN(C(=O)C5CCOCC5)C4)c3c2)cn1 [Compound 12d]
- PI3Kδ selectivity over PI3Kα (PI3Kα): 11 fold
- IC50 (PI3Kα): 50.4 nM
- IC50 (Ramos): 1340 nM
- IC50 (RPMI-8226): 440 nM
- IC50 (SU-DHL-6): 3230 nM
- PI3Kδ selectivity over PI3Kβ (PI3Kβ): 131 fold
- IC50 (PI3Kβ): 592 nM
- IC50 (Raji): 9810 nM
- IC50 (PI3Kδ [1]; [3]): 4.9 nM
- inhibition at 0.1 µM (PI3Kδ [1]): 98%
- IC50 (PI3Kδ [1]; read-out: PI3Kδ IC50): 4.9 nM
- PI3Kδ selectivity over PI3Kγ (PI3Kγ): 103 fold
- IC50 (PI3Kγ): 468 nM

SMILES: COc1ccc(-c2ccc3ncnc(O[C@H]4CCN(C(=O)C(C)(C)C)C4)c3c2)cn1 [Compound 12e]
- inhibition at 0.1 µM (PI3Kδ [1]): 53%

SMILES: COc1ccc(-c2ccc3ncnc(N[C@H]4CCCN(C(=O)OC(C)(C)C)C4)c3c2)cn1 [Compound 14a]
- inhibition at 0.1 µM (PI3Kδ [1]): 51%

SMILES: COc1ccc(-c2ccc3ncnc(N[C@H]4CCCN(C(=O)C5CC5)C4)c3c2)cn1 [Compound 14b]
- PI3Kδ selectivity over PI3Kα (PI3Kα): 12 fold
- IC50 (PI3Kα): 36.6 nM
- IC50 (Ramos): 1340 nM
- IC50 (RPMI-8226): 8660 nM
- IC50 (SU-DHL-6): 1040 nM
- PI3Kδ selectivity over PI3Kβ (PI3Kβ): 105 fold
- IC50 (PI3Kβ): 317 nM
- IC50 (Raji): 810 nM
- IC50 (PI3Kδ [1]; [3]): 3 nM
- inhibition at 0.1 µM (PI3Kδ [1]): 94%
- IC50 (PI3Kδ [1]; read-out: PI3Kδ IC50): 3 nM
- PI3Kδ selectivity over PI3Kγ (PI3Kγ): 34 fold
- IC50 (PI3Kγ): 104 nM

SMILES: COc1ccc(-c2ccc3ncnc(N[C@H]4CCCN(C(=O)C5CCC5)C4)c3c2)cn1 [Compound 14c]
- PI3Kδ selectivity over PI3Kα (PI3Kα): 15 fold
- IC50 (PI3Kα): 58.9 nM
- IC50 (SU-DHL-6): 1490 nM
- PI3Kδ selectivity over PI3Kβ (PI3Kβ): 96 fold
- IC50 (PI3Kβ): 376 nM
- IC50 (PI3Kδ [1]; [3]): 3.9 nM
- inhibition at 0.1 µM (PI3Kδ [1]): 91%
- IC50 (PI3Kδ [1]; read-out: PI3Kδ IC50): 3.9 nM
- PI3Kδ selectivity over PI3Kγ (PI3Kγ): 31 fold
- IC50 (PI3Kγ): 121 nM

SMILES: COc1ccc(-c2ccc3ncnc(N[C@H]4CCCN(C(=O)C5CCCC5)C4)c3c2)cn1 [Compound 14d]
- inhibition at 0.1 µM (PI3Kδ [1]): 91%
- IC50 (PI3Kδ [1]; read-out: PI3Kδ IC50): 8.7 nM

SMILES: COc1ccc(-c2ccc3ncnc(N[C@H]4CCCN(C(=O)C5CCOCC5)C4)c3c2)cn1 [Compound 14e]
- inhibition at 0.1 µM (PI3Kδ [1]): 88%
- IC50 (PI3Kδ [1]; read-out: PI3Kδ IC50): 5.2 nM

SMILES: COc1ccc(-c2ccc3ncnc(N[C@H]4CCCN(C(=O)C(C)(C)C)C4)c3c2)cn1 [Compound 14f]
- inhibition at 0.1 µM (PI3Kδ [1]): 54%

SMILES: COc1ccc(-c2ccc3ncnc(NC4CCN(C(=O)OC(C)(C)C)CC4)c3c2)cn1 [Compound 16a]
- inhibition at 0.1 µM (PI3Kδ [1]): 72%

SMILES: COc1ccc(-c2ccc3ncnc(NC4CCN(C(=O)C5CC5)CC4)c3c2)cn1 [Compound 16b]
- inhibition at 0.1 µM (PI3Kδ [1]): 70%

SMILES: COc1ccc(-c2ccc3ncnc(NC4CCN(C(=O)C5CCOCC5)CC4)c3c2)cn1 [Compound 16c]
- inhibition at 0.1 µM (PI3Kδ [1]): 48%

SMILES: O=C(CCCCCCC(=O)Nc1ccccc1)NO [SAHA, vorinostat, reference compound]
- IC50 (RPMI-8226): 660 nM
